Our source for the IC50 and melting point values is patent US7846928B2, “Substituted pyrazolopyridines and salts thereof, pharmaceutical compositions comprising same, methods of preparing same and uses of same” (Bayer Schering Pharma AG, priority 2006, dated 2010).

Series [1] deals with T1, Tie2 (Homo sapiens, UniProt Q02763). The series can be described thus: Tie-2-Kinase HTRF-Assay without kinase preactivation (assay 2). Set-up: fusion protein of GST and the intracellular domains of Tie-2; GST; made in house; host or cells: insect cells (Hi-5). It counts as biochemical. The following applies: GST-Tie-2 without preactivation, 10 μM ATP; pIC50 = -log IC50 molar. The text has this:
Tie2-inhibitory activity of compounds of the present invention was quantified employing two Tie2 HTRF assay as described in the following paragraphs.
A recombinant fusion protein of GST and the intracellular domains of Tie-2, expressed in insect cells (Hi-5) and purified by Glutathion-Sepharose affinity chromatography was used as kinase. Alternatively, commercially available GST-Tie2-fusion protein (Upstate Biotechnology, Dundee, Scotland) can be used As substrate for the kinase reaction the biotinylated peptide biotin-Ahx-EPKDDAYPLYSDFG (C-terminus in amid form) was used which can be purchased e.g. from the company Biosynthan GmbH (Berlin-Buch, Germany). Detection of phosphorylated product is achieved specifically by a trimeric detection complex consisting of the phosphorylated substrate, streptavidin-XLent (SA-XLent) which binds to biotin, and Europium Cryptate-labeled anti-phosphotyrosine antibody PT66 which binds to phosphorylated tyrosine.
Tie-2 (3.5 ng/measurement point) was incubated for 60 min at 22° C. in the presence of 10 μM adenosine-tri-phosphate (ATP) and 1 μM substrate peptide (biotin-Ahx-EPKDDAYPLYSDFG-NH2) with different concentrations of test compounds (0 μM and concentrations in the range 0.001-20 μM) in 5 μl assay buffer [50 mM Hepes/NaOH pH 7, 10 mM MgCl2, 0.5 mM MnCl2, 1.0 mM dithiothreitol, 0.01% NP40, protease inhibitor mixture (“Complete w/o EDTA” from Roche, 1 tablet per 2.5 ml), 1% (v/v) dimethylsulfoxide]. The reaction was stopped by the addition of 5 μl of an aqueous buffer (25 mM Hepes/NaOH pH 7.5, 0.28% (w/v) bovine serum albumin) containing EDTA (90 mM) and the HTRF (Homogeneous Time Resolved Fluorescence) detection reagents streptavidine-XLent (0.2 μM, from Cis Biointernational, Marcoule, France) and PT66-Eu-Chelate (0.3 ng/μl; a europium-chelate labelled anti-phospho-tyrosine antibody from Perkin Elmer).
The resulting mixture was incubated 1 h at 22° C. to allow the binding of the biotinylated phosphorylated peptide to the streptavidine-XLent and the PT66-Eu-Chelate. Subsequently the amount of phosphorylated substrate peptide was evaluated by measurement of the resonance energy transfer from the PT66-Eu-Chelate to the streptavidine-XLent. Therefore, the fluorescence emissions at 620 nm and 665 nm after excitation at 350 nm was measured in a HTRF reader, e.g. a Rubystar (BMG Labtechnologies, Offenburg, Germany) or a Viewlux (Perkin-Elmer). The ratio of the emissions at 665 nm and at […] was taken as the measure for the amount of phosphorylated substrate peptide. The data were normalised (enzyme reaction without inhibitor=0% inhibition, all other assay components but no enzyme=100% inhibition) and IC50 values were calculated by a 4 parameter fit using an inhouse software.
Target sequence in this assay (Q02763 770-1124 limits assumed): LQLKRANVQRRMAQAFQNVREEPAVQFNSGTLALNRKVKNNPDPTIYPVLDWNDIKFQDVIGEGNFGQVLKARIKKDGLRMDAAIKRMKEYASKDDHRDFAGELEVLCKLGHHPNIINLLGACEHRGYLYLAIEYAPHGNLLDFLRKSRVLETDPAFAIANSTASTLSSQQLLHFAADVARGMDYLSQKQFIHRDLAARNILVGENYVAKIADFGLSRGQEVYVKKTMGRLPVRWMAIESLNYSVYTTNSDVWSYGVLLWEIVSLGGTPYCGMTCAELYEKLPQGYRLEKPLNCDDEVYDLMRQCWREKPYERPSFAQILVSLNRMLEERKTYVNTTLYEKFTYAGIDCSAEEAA
(In general: In TR-FRET formats the signal depends on donor and acceptor labels being close together.)

In series [2] the target is T1, Tie2. Kind of series: Tie2 ELISA assay (assay 1): cellular Tie2 autophosphorylation in Tie2-transfected CHO cells stimulated by angiopoietin-2. It counts as cell-based. Also noted: expressed in transfected cells; host or cells: CHO (DHFR-deficient), stably transfected: CHO Tie2/DHFR. The following applies: CHO Tie2/DHFR cells, Ang2 stimulated, Tie2 autophosphorylation sandwich-ELISA; pIC50 = -log IC50 molar; read-out: Tie 2 activity (assay 1). Here is the method: Cellular activity of compounds of the present invention as inhibitors of Tie2 kinase activity was measured employing a Tie2 ELISA assay as described in the following paragraphs. Herein CHO cell-cultures, which are stably transfected by known techniques with Tie2 using DHFR deficiency as selection marker, are stimulated by angiopoietin-2. The specific autophosphorylation of Tie2 receptors is quantified with a sandwich-ELISA using anti-Tie2 antibodies for catch and anti-phosphotyrosine antibodies coupled to HRP for detection.
• 96 well tissue culture plate, sterile, Greiner • 96 well FluoroNunc plate MaxiSorp Surface C, Nunc • 96 well plate polypropylene for compound dilution in DMSO • CHO Tie2/DHFR (transfected cells) • PBS−; PBS++, DMSO • MEM alpha Medium with Glutamax-I without Ribonucleosides and • Deoxyribonucleosides (Gibco #32561-029) • with 10% FCS after dialysis! and 1% PenStrep • Lysis buffer: 1 Tablet “Complete” protease inhibitor • 1 cap Vanadate (1 mL>40 mg/mL; working solution 2 mM) • ad 50 mL with Duschl-Puffer • pH 7.6 • Anti-Tie2-antibody 1:425 in Coating Buffer pH 9.6 • Stock solution: 1.275 mg/mL>working: 3 μg/mL • PBST: 2 bottles PBS(10×)+10 ml Tween, fill up with VE-water • RotiBlock 1:10 in VE-water • Anti-Phosphotyrosine HRP-Conjugated 1:10000 in 3% TopBlock • 3% TopBlock in PBST • BM Chemiluminescence ELISA Substrate (POD) • solution B1:100 solution A • SF9 cell culture medium • Ang2-Fc in SF9 cell culture medium Cell Experiment: • Dispense 5×10^4 cells/well/98 μL in 96 well tissue culture plate • Incubate at 37° C./5% CO2 • After 24 h add compounds according to desired concentrations • Add also to control and stimulated values without compounds 2 μL DMSO • And mix for a few min at room temperature • Add 100 μL Ang2-Fc to all wells except control, which receives insect medium • Incubate 20 min at 37° C. • Wash 3× with PBS++ • Add 100 μl Lysis buffer/well and shake a couple of min at room temperature • Store lysates at 20° C. before utilizing for the ELISA Performance of Sandwich-ELISA • Coat 96 well FluoroNunc Plate MaxiSorp Surface C with anti-Tie2 mAb • 1:425 in Coating buffer pH 9.6; 100 μL/well overnight at 4° C. • Wash 2× with PBST • Block plates with 250 μL/well RotiBlock 1:10 in VE-water • Incubate for 2 h at room temperature or overnight at 4° C. shaking • Wash 2× in PBST • Add thawed lysates to wells and incubate overnight shaking at 4° C. • Wash 2× with PBST • Add 100 μL/well anti-Phosphotyrosine HRP-Conjugated 1:10000 in 3% • TopBlock (3% TopBlock in PBST) and incubate overnight under shaking • Wash 6× with PBST • Add 100 μL/well BM Chemiluminescence ELISA Substrate (POD) • solutions 1 und 2 (1:100) • Determine luminescence with the LumiCount. Assay 2: Tie-2-Kinase HTRF-Assay without Kinase Preactivation
Target sequence in this assay (Q02763 23-1124): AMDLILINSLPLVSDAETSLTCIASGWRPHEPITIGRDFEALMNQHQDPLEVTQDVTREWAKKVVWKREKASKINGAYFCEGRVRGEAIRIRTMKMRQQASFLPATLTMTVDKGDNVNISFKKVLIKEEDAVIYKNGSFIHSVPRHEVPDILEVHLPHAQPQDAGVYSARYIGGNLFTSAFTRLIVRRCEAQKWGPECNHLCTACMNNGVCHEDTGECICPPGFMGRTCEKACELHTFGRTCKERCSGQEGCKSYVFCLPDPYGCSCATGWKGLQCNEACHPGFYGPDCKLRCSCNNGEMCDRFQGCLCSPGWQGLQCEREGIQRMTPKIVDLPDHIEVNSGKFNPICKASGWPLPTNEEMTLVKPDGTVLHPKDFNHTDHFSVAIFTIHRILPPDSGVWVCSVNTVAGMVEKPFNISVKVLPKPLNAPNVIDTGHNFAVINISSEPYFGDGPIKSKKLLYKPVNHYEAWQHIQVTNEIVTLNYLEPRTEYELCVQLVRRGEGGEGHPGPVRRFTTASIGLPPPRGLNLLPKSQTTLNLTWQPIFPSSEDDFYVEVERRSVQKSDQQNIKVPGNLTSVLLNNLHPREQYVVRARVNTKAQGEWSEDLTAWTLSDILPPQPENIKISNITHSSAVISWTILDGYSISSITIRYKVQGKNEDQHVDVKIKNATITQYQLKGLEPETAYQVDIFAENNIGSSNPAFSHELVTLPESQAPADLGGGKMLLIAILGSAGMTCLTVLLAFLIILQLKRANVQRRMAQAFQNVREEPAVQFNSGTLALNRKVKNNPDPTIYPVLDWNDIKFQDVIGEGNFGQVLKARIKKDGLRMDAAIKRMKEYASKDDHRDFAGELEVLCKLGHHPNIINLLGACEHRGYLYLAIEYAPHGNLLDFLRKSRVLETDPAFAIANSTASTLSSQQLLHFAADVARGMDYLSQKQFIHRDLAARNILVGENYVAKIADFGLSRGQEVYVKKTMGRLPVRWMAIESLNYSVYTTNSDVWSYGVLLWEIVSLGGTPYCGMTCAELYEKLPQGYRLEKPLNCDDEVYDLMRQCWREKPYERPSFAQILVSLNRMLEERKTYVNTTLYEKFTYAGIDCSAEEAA

As to `CC(C)c1cc(-c2ccc(NC(=O)Nc3cccc(C(F)(F)F)c3)cc2)c2cnn(CCCN3CCOCC3)c2n1` [1.25, 1-{4-[6-Isopropyl-1-(3-morpholin-4-yl-propyl)-1H-pyrazolo[3,4-b]pyridin-4-yl]-phenyl}-3-(3-trifluoromethyl-phenyl)-urea], the IC50 at Tie2 [1] is 1000 to 10000 nM; at Tie2 [2], less than 501 nM.
With `Cn1ncc2c(-c3ccc(NC(=O)Nc4cccc(C(F)(F)F)c4)cc3)cc(C3(C(=O)N4CCCC4)CC3)nc21` [1.27, 1-(4-{1-Methyl-6-[1-(pyrrolidine-1-carbonyl)-cyclopropyl]-1H-pyrazolo[3,4-b]pyridin-4-yl}-phenyl)-3-(3-trifluoromethyl-phenyl)-urea], the IC50 at Tie2 [1] and on Tie2 [2] was less than 501 nM in each case.
In general, melting point refers to the temperature of the solid-liquid transition. With `Cc1cc(-c2ccc(NC(=O)Nc3cc(C(F)(F)F)ccc3N3CCCC3)cc2)c2cnn(C)c2n1` [2.8, 1-[4-(1,6-Dimethyl-1H-pyrazolo[3,4-b]pyridin-4-yl)-phenyl]-3-(2-pyrrolidin-1-yl-5-trifluoromethyl-phenyl)-urea], the melting point was determined as 236 °C.
